The compounds below were run on HCI-012 (organoid from a breast cancer xenograft) (assay: CTG-3D luminescence at 96 h relative to day-0 seeding control (ratio to day 0); higher = more growth / less cytotoxicity; PDxO 3D drug screen, 96 h, CTG-3D normalised to day-0 seeding control.). Settings: 12.5 pM; days in culture: 143.

| SMILES | CTG-3D luminescence at 96 h |
| --- | --- |
| CC(C)(C(=O)NCC(F)(F)C(F)(F)F)C(=O)N[C@@H]1C(=O)Nc2ccccc2-c2ccccc21 | 1.62 |
| C=CC(=O)N1CCC[C@@H](n2nc(-c3ccc(Oc4ccccc4)cc3)c3c(N)ncnc32)C1 [ibrutinib] | 1.95 |
| CNC(=O)c1cccc(-c2ccc3c(N4CCOC[C@@H]4C)nc(N4CCOC[C@@H]4C)nc3n2)c1 [vistusertib] | 2.08 |
| CCN(c1cc(C#CCN2CCOCC2)cc(C(=O)NCc2c(C)cc(C)[nH]c2=O)c1C)[C@H]1CC[C@H](N(C)CCOC)CC1 | 1.91 |

Same assay, conditions: 12.5 pM; days in culture: 162

| SMILES | CTG-3D luminescence at 96 h |
| --- | --- |
| CC(C)(C(=O)NCC(F)(F)C(F)(F)F)C(=O)N[C@@H]1C(=O)Nc2ccccc2-c2ccccc21 | 2.77 |
| C=CC(=O)N1CCC[C@@H](n2nc(-c3ccc(Oc4ccccc4)cc3)c3c(N)ncnc32)C1 [ibrutinib] | 2.49 |
| CNC(=O)c1cccc(-c2ccc3c(N4CCOC[C@@H]4C)nc(N4CCOC[C@@H]4C)nc3n2)c1 [vistusertib] | 2.68 |
| CCN(c1cc(C#CCN2CCOCC2)cc(C(=O)NCc2c(C)cc(C)[nH]c2=O)c1C)[C@H]1CC[C@H](N(C)CCOC)CC1 | 2.51 |

Same assay, conditions: 12.5 pM; days in culture: 201

| SMILES | CTG-3D luminescence at 96 h |
| --- | --- |
| CC(C)(C(=O)NCC(F)(F)C(F)(F)F)C(=O)N[C@@H]1C(=O)Nc2ccccc2-c2ccccc21 | 2.67 |
| C=CC(=O)N1CCC[C@@H](n2nc(-c3ccc(Oc4ccccc4)cc3)c3c(N)ncnc32)C1 [ibrutinib] | 2.76 |
| CNC(=O)c1cccc(-c2ccc3c(N4CCOC[C@@H]4C)nc(N4CCOC[C@@H]4C)nc3n2)c1 [vistusertib] | 2.73 |
| CCN(c1cc(C#CCN2CCOCC2)cc(C(=O)NCc2c(C)cc(C)[nH]c2=O)c1C)[C@H]1CC[C@H](N(C)CCOC)CC1 | 2.85 |

Same assay, conditions: 0.00025 µM; days in culture: 143

| SMILES | CTG-3D luminescence at 96 h |
| --- | --- |
| CC(C)(C(=O)NCC(F)(F)C(F)(F)F)C(=O)N[C@@H]1C(=O)Nc2ccccc2-c2ccccc21 | 1.71 |
| C=CC(=O)N1CCC[C@@H](n2nc(-c3ccc(Oc4ccccc4)cc3)c3c(N)ncnc32)C1 [ibrutinib] | 2 |
| CNC(=O)c1cccc(-c2ccc3c(N4CCOC[C@@H]4C)nc(N4CCOC[C@@H]4C)nc3n2)c1 [vistusertib] | 2.14 |
| CCN(c1cc(C#CCN2CCOCC2)cc(C(=O)NCc2c(C)cc(C)[nH]c2=O)c1C)[C@H]1CC[C@H](N(C)CCOC)CC1 | 2.56 |

Same assay, conditions: 0.00025 µM; days in culture: 162

| SMILES | CTG-3D luminescence at 96 h |
| --- | --- |
| CC(C)(C(=O)NCC(F)(F)C(F)(F)F)C(=O)N[C@@H]1C(=O)Nc2ccccc2-c2ccccc21 | 1.65 |
| C=CC(=O)N1CCC[C@@H](n2nc(-c3ccc(Oc4ccccc4)cc3)c3c(N)ncnc32)C1 [ibrutinib] | 1.94 |
| CNC(=O)c1cccc(-c2ccc3c(N4CCOC[C@@H]4C)nc(N4CCOC[C@@H]4C)nc3n2)c1 [vistusertib] | 2.6 |
| CCN(c1cc(C#CCN2CCOCC2)cc(C(=O)NCc2c(C)cc(C)[nH]c2=O)c1C)[C@H]1CC[C@H](N(C)CCOC)CC1 | 2.39 |

Same assay, conditions: 0.00025 µM; days in culture: 201

| SMILES | CTG-3D luminescence at 96 h |
| --- | --- |
| CC(C)(C(=O)NCC(F)(F)C(F)(F)F)C(=O)N[C@@H]1C(=O)Nc2ccccc2-c2ccccc21 | 2.23 |
| C=CC(=O)N1CCC[C@@H](n2nc(-c3ccc(Oc4ccccc4)cc3)c3c(N)ncnc32)C1 [ibrutinib] | 1.92 |
| CNC(=O)c1cccc(-c2ccc3c(N4CCOC[C@@H]4C)nc(N4CCOC[C@@H]4C)nc3n2)c1 [vistusertib] | 1.99 |
| CCN(c1cc(C#CCN2CCOCC2)cc(C(=O)NCc2c(C)cc(C)[nH]c2=O)c1C)[C@H]1CC[C@H](N(C)CCOC)CC1 | 2.09 |

Same assay, conditions: 0.005 µM; days in culture: 143

| SMILES | CTG-3D luminescence at 96 h |
| --- | --- |
| CC(C)(C(=O)NCC(F)(F)C(F)(F)F)C(=O)N[C@@H]1C(=O)Nc2ccccc2-c2ccccc21 | 1.71 |
| C=CC(=O)N1CCC[C@@H](n2nc(-c3ccc(Oc4ccccc4)cc3)c3c(N)ncnc32)C1 [ibrutinib] | 1.95 |
| CNC(=O)c1cccc(-c2ccc3c(N4CCOC[C@@H]4C)nc(N4CCOC[C@@H]4C)nc3n2)c1 [vistusertib] | 2.4 |
| CCN(c1cc(C#CCN2CCOCC2)cc(C(=O)NCc2c(C)cc(C)[nH]c2=O)c1C)[C@H]1CC[C@H](N(C)CCOC)CC1 | 2.37 |

Same assay, conditions: 0.005 µM; days in culture: 162

| SMILES | CTG-3D luminescence at 96 h |
| --- | --- |
| CC(C)(C(=O)NCC(F)(F)C(F)(F)F)C(=O)N[C@@H]1C(=O)Nc2ccccc2-c2ccccc21 | 1.36 |
| C=CC(=O)N1CCC[C@@H](n2nc(-c3ccc(Oc4ccccc4)cc3)c3c(N)ncnc32)C1 [ibrutinib] | 2.13 |
| CNC(=O)c1cccc(-c2ccc3c(N4CCOC[C@@H]4C)nc(N4CCOC[C@@H]4C)nc3n2)c1 [vistusertib] | 1.94 |
| CCN(c1cc(C#CCN2CCOCC2)cc(C(=O)NCc2c(C)cc(C)[nH]c2=O)c1C)[C@H]1CC[C@H](N(C)CCOC)CC1 | 1.97 |

Same assay, conditions: 0.005 µM; days in culture: 201

| SMILES | CTG-3D luminescence at 96 h |
| --- | --- |
| CC(C)(C(=O)NCC(F)(F)C(F)(F)F)C(=O)N[C@@H]1C(=O)Nc2ccccc2-c2ccccc21 | 1.91 |
| C=CC(=O)N1CCC[C@@H](n2nc(-c3ccc(Oc4ccccc4)cc3)c3c(N)ncnc32)C1 [ibrutinib] | 1.72 |
| CNC(=O)c1cccc(-c2ccc3c(N4CCOC[C@@H]4C)nc(N4CCOC[C@@H]4C)nc3n2)c1 [vistusertib] | 1.53 |
| CCN(c1cc(C#CCN2CCOCC2)cc(C(=O)NCc2c(C)cc(C)[nH]c2=O)c1C)[C@H]1CC[C@H](N(C)CCOC)CC1 | 1.92 |

Same assay, conditions: 0.1 µM; days in culture: 143

| SMILES | CTG-3D luminescence at 96 h |
| --- | --- |
| CC(C)(C(=O)NCC(F)(F)C(F)(F)F)C(=O)N[C@@H]1C(=O)Nc2ccccc2-c2ccccc21 | 2.2 |
| C=CC(=O)N1CCC[C@@H](n2nc(-c3ccc(Oc4ccccc4)cc3)c3c(N)ncnc32)C1 [ibrutinib] | 2.2 |
| CNC(=O)c1cccc(-c2ccc3c(N4CCOC[C@@H]4C)nc(N4CCOC[C@@H]4C)nc3n2)c1 [vistusertib] | 1.9 |
| CCN(c1cc(C#CCN2CCOCC2)cc(C(=O)NCc2c(C)cc(C)[nH]c2=O)c1C)[C@H]1CC[C@H](N(C)CCOC)CC1 | 2.99 |

Same assay, conditions: 0.1 µM; days in culture: 162

| SMILES | CTG-3D luminescence at 96 h |
| --- | --- |
| CC(C)(C(=O)NCC(F)(F)C(F)(F)F)C(=O)N[C@@H]1C(=O)Nc2ccccc2-c2ccccc21 | 2.46 |
| C=CC(=O)N1CCC[C@@H](n2nc(-c3ccc(Oc4ccccc4)cc3)c3c(N)ncnc32)C1 [ibrutinib] | 2.98 |
| CNC(=O)c1cccc(-c2ccc3c(N4CCOC[C@@H]4C)nc(N4CCOC[C@@H]4C)nc3n2)c1 [vistusertib] | 2.8 |
| CCN(c1cc(C#CCN2CCOCC2)cc(C(=O)NCc2c(C)cc(C)[nH]c2=O)c1C)[C@H]1CC[C@H](N(C)CCOC)CC1 | 2.73 |

Same assay, conditions: 0.1 µM; days in culture: 201

| SMILES | CTG-3D luminescence at 96 h |
| --- | --- |
| CC(C)(C(=O)NCC(F)(F)C(F)(F)F)C(=O)N[C@@H]1C(=O)Nc2ccccc2-c2ccccc21 | 1.9 |
| C=CC(=O)N1CCC[C@@H](n2nc(-c3ccc(Oc4ccccc4)cc3)c3c(N)ncnc32)C1 [ibrutinib] | 1.69 |
| CNC(=O)c1cccc(-c2ccc3c(N4CCOC[C@@H]4C)nc(N4CCOC[C@@H]4C)nc3n2)c1 [vistusertib] | 1.7 |
| CCN(c1cc(C#CCN2CCOCC2)cc(C(=O)NCc2c(C)cc(C)[nH]c2=O)c1C)[C@H]1CC[C@H](N(C)CCOC)CC1 | 2.18 |

Same assay, conditions: 1 µM; days in culture: 143

| SMILES | CTG-3D luminescence at 96 h |
| --- | --- |
| CC(C)(C(=O)NCC(F)(F)C(F)(F)F)C(=O)N[C@@H]1C(=O)Nc2ccccc2-c2ccccc21 | 2.22 |
| C=CC(=O)N1CCC[C@@H](n2nc(-c3ccc(Oc4ccccc4)cc3)c3c(N)ncnc32)C1 [ibrutinib] | 1.64 |
| CNC(=O)c1cccc(-c2ccc3c(N4CCOC[C@@H]4C)nc(N4CCOC[C@@H]4C)nc3n2)c1 [vistusertib] | 1.14 |
| CCN(c1cc(C#CCN2CCOCC2)cc(C(=O)NCc2c(C)cc(C)[nH]c2=O)c1C)[C@H]1CC[C@H](N(C)CCOC)CC1 | 3.02 |

Same assay, conditions: 1 µM; days in culture: 162

| SMILES | CTG-3D luminescence at 96 h |
| --- | --- |
| CC(C)(C(=O)NCC(F)(F)C(F)(F)F)C(=O)N[C@@H]1C(=O)Nc2ccccc2-c2ccccc21 | 1.82 |
| C=CC(=O)N1CCC[C@@H](n2nc(-c3ccc(Oc4ccccc4)cc3)c3c(N)ncnc32)C1 [ibrutinib] | 1.72 |
| CNC(=O)c1cccc(-c2ccc3c(N4CCOC[C@@H]4C)nc(N4CCOC[C@@H]4C)nc3n2)c1 [vistusertib] | 1.21 |
| CCN(c1cc(C#CCN2CCOCC2)cc(C(=O)NCc2c(C)cc(C)[nH]c2=O)c1C)[C@H]1CC[C@H](N(C)CCOC)CC1 | 2.39 |

Same assay, conditions: 1 µM; days in culture: 201

| SMILES | CTG-3D luminescence at 96 h |
| --- | --- |
| CC(C)(C(=O)NCC(F)(F)C(F)(F)F)C(=O)N[C@@H]1C(=O)Nc2ccccc2-c2ccccc21 | 2.48 |
| C=CC(=O)N1CCC[C@@H](n2nc(-c3ccc(Oc4ccccc4)cc3)c3c(N)ncnc32)C1 [ibrutinib] | 2.52 |
| CNC(=O)c1cccc(-c2ccc3c(N4CCOC[C@@H]4C)nc(N4CCOC[C@@H]4C)nc3n2)c1 [vistusertib] | 1.42 |
| CCN(c1cc(C#CCN2CCOCC2)cc(C(=O)NCc2c(C)cc(C)[nH]c2=O)c1C)[C@H]1CC[C@H](N(C)CCOC)CC1 | 2.33 |

Same assay, conditions: 10 µM; days in culture: 143

| SMILES | CTG-3D luminescence at 96 h |
| --- | --- |
| CC(C)(C(=O)NCC(F)(F)C(F)(F)F)C(=O)N[C@@H]1C(=O)Nc2ccccc2-c2ccccc21 | 2.41 |
| C=CC(=O)N1CCC[C@@H](n2nc(-c3ccc(Oc4ccccc4)cc3)c3c(N)ncnc32)C1 [ibrutinib] | 1.12 |
| CNC(=O)c1cccc(-c2ccc3c(N4CCOC[C@@H]4C)nc(N4CCOC[C@@H]4C)nc3n2)c1 [vistusertib] | 0.875 |
| CCN(c1cc(C#CCN2CCOCC2)cc(C(=O)NCc2c(C)cc(C)[nH]c2=O)c1C)[C@H]1CC[C@H](N(C)CCOC)CC1 | 3.17 |

From the supplement of paper PMC8882468
